In ChEMBL document CHEMBL4402592, “Targeting Endoplasmic Reticulum α-Glucosidase I with a Single-Dose Iminosugar Treatment Protects against Lethal Influenza and Dengue Virus Infections” (J Med Chem, 2020):
Activity calls are given as the source filed them. The rule behind the calls is not given here.

Assays:
[1] = tested on: dengue virus type 2; test: Antiviral activity against Dengue virus 2 S221 infected in DENV antibody dependent enhancement AG129 mouse model assessed as reduction in viremia at 750 mg/kg, po administered via gavage as single dose at 36 hrs post infection measured within 8 hrs by qRT-PCR analysis; assay type: functional
[2] = tested on: dengue virus type 2; test: (§1) Antiviral activity against Dengue virus 2 S221 infected in DENV antibody dependent enhancement AG129 mouse model assessed as reduction in KC-GRO level at 750 mg/kg, po administered via gavage as two doses at 36 hrs and 52 hrs post infection measured at 60 hrs post-infection by electrochemiluminescence based method; assay type: functional, organism-based
[3] = tested on: Mus musculus; test: In vivo inhibition of ERGlu1 in BALB/c mouse assessed as increase in tri-glucosylated FOS level in serum at >250 mg/kg, po administered via gavage as single dose at 8 hrs post-infection measured at 8 hrs post-dose by NP-HPLC analysis; assay type: functional, organism-based
[4] = tested on: Influenza A virus; test: Antiviral activity against Influenza A virus (A/Texas/36/1991(H1N1)) infected in BALB/c mouse assessed as animal survival at 250 mg/kg, po administered via gavage as single dose at 8 hrs post infection (reference value: 0%); assay type: functional
[5] = tested on: Influenza A virus; test: Antiviral activity against Influenza A virus (A/Texas/36/1991(H1N1)) infected in BALB/c mouse assessed as animal survival at 750 mg/kg, po administered via gavage as three doses at 8, 32 and 56 hrs post infection (reference value: 0%); assay type: functional
[6] = tested on: Influenza A virus; test: Antiviral activity against Influenza A virus (A/Texas/36/1991(H1N1)) infected in BALB/c mouse assessed as increase in animal survival rate at 100 mg/kg, po administered via gavage starting at 8 hrs post-infection and continuing TID for 5 days; assay type: functional, organism-based
[7] = tested on: Cynomolgus monkey; test: In vivo inhibition of ERGlu1 in cynomolgus monkey assessed as increase in tri-glucosylated FOS at level in serum 128 to 258 mg/kg, po administered via gavage as single dose measured after 8 to 72 hrs by NP-HPLC analysis; assay type: functional, organism-based; conditions: Macaca fascicularis
[8] = tested on: dengue virus type 2; test: as §1, with “IL-10” for “KC-GRO”; assay type: functional, organism-based
[9] = tested on: Mus musculus; test: In vivo inhibition of ERGlu1 in BALB/c mouse assessed as increase in mono-glucosylated FOS level in serum at 100 to 1000 mg/kg, po administered via gavage at 8 hrs post-infection and measured at 8 hrs post-dose by NP-HPLC analysis; assay type: functional, organism-based
[10] = tested on: Mus musculus; test: In vivo inhibition of ERGlu1 in BALB/c mouse assessed as increase in tri-glucosylated FOS level in spleen at 750 mg/kg, po administered via gavage as single dose and measured after 16 hrs by NP-HPLC analysis; assay type: functional, organism-based
[11] = tested on: Influenza A virus; test: Antiviral activity against Influenza A virus (A/Texas/36/1991(H1N1)) infected in BALB/c mouse assessed as median death time at 500 mg/kg, po administered via gavage as two doses at 8 hrs and 32 hrs post infection (reference value: 9 days); assay type: functional
[12] = tested on: dengue virus type 2; test: Antiviral activity against Dengue virus 2 S221 infected in DENV antibody dependent enhancement AG129 mouse model assessed as animal survival at 375 mg/kg, po administered via gavage as two doses at 16 and 32 hrs post infection (reference value: 4%); assay type: functional
[13] = tested on: Influenza A virus; test: Antiviral activity against Influenza A virus (A/Texas/36/1991(H1N1)) infected in BALB/c mouse assessed as animal survival at 500 mg/kg, po administered via gavage as single dose at 16 hrs post infection (reference value: 0%); assay type: functional
[14] = tested on: dengue virus type 2; test: as §1, with “single dose” for “two doses”, “36” for “36 hrs and 52”; assay type: functional, organism-based
[15] = tested on: dengue virus type 2; test: as §1, with “TNF-alpha” for “KC-GRO”, “single dose” for “two doses”, “36” for “36 hrs and 52”, “72” for “60”; assay type: functional, organism-based
[16] = tested on: dengue virus type 2; test: as §1, with “TNF-lapha” for “KC-GRO”, “52” for “60”; assay type: functional, organism-based
[17] = tested on: dengue virus type 2; test: as §1, with “single dose” for “two doses”, “36” for “36 hrs and 52”, “72” for “60”; assay type: functional, organism-based
[18] = tested on: Influenza A virus; test: Antiviral activity against Influenza A virus (A/Texas/36/1991(H1N1)) infected in BALB/c mouse assessed as median death time at 250 mg/kg, po administered via gavage as two doses at 8 hrs and 32 hrs post infection (reference value: 9 days); assay type: functional
[19] = tested on: dengue virus type 2; test: as §1, with “IL-12/IL-23p40” for “KC-GRO”, “72” for “60”; assay type: functional, organism-based
[20] = tested on: Mus musculus; test: In vivo inhibition of ERGlu2 in BALB/c mouse assessed as increase in mono-glucosylated FOS level in serum at 20 mg/kg, po administered via gavage starting at 8 hrs post-infection and continuing tid for 5 days and measured at 8 hrs post-final dose by NP-HPLC analysis; assay type: functional, organism-based
[21] = tested on: Mus musculus; test: In vivo inhibition of ERGlu1 in BALB/c mouse assessed as increase in tri-glucosylated FOS level in lung at >250 mg/kg, po administered via gavage as single dose at 8 hrs post-infection and measured at 8 hrs post dose by NP-HPLC analysis; assay type: functional, organism-based
[22] = tested on: dengue virus type 2; test: Antiviral activity against Dengue virus 2 S221 infected in DENV antibody dependent enhancement AG129 mouse model assessed as animal survival at 750 mg/kg, po administered via gavage as two doses at 16 and 32 hrs post infection (reference value: 4%); assay type: functional
[23] = tested on: dengue virus type 2; test: Antiviral activity against Dengue virus 2 S221 infected in DENV antibody dependent enhancement AG129 mouse model assessed as animal survival at 750 mg/kg, po administered via gavage as two doses at 24 and 40 hrs post infection (reference value: 4%); assay type: functional
[24] = tested on: dengue virus type 2; test: as §1, with “IL-10” for “KC-GRO”, “single dose” for “two doses”, “36” for “36 hrs and 52”, “72” for “60”; assay type: functional, organism-based
[25] = tested on: Influenza A virus; test: Antiviral activity against Influenza A virus (A/Texas/36/1991(H1N1)) infected in BALB/c mouse assessed as median death time at 100 mg/kg, po administered via gavage starting at 8 hrs post-infection and continuing TID for 5 days; assay type: functional
[26] = tested on: dengue virus type 2; test: Antiviral activity against Dengue virus 2 S221 infected in DENV antibody dependent enhancement AG129 mouse model assessed as animal survival at 250 mg/kg, po administered via gavage as two doses at 8 and 24 hrs post infection (reference value: 4%); assay type: functional
[27] = tested on: Influenza A virus; test: Antiviral activity against Influenza A virus (A/Texas/36/1991(H1N1)) infected in BALB/c mouse assessed as median death time at 750 mg/kg, po administered via gavage as three dosed at 8, 32 and 56 hrs post infection (reference value: 8 days); assay type: functional
[28] = tested on: Influenza A virus; test: Antiviral activity against Influenza A virus (A/Texas/36/1991(H1N1)) infected in BALB/c mouse assessed as animal survival at 750 mg/kg, po administered via gavage as single dose at 16 hrs post infection (reference value: 0%); assay type: functional

Which results are given for `COCCCCCCCCCN1C[C@H](O)[C@@H](O)[C@H](O)[C@H]1CO.Cl`?
log(activity) [1]: >1; Activity [2]: Active; inhibition [3]: Active; survival at 250 mg/kg [4]: 30%; survival at 750 mg/kg [5]: 100%; Activity [6]: Active; inhibition [7]: Active; Activity [8]: Active; inhibition [9]: Active; inhibition [10]: Active; Time [11]: >14 days; survival at 375 mg/kg [12]: 100%; survival at 500 mg/kg [13]: 40%; Activity [14]: Active; Activity [15]: Active; Activity [16]: Active; Activity [17]: Active; Time [18]: >14 days; Activity [19]: Active; inhibition [20]: Active; inhibition [21]: Active; survival at 750 mg/kg [22]: 100%; survival at 750 mg/kg [23]: 89%; Activity [24]: Active; Time [25]: >14 days; survival at 250 mg/kg [26]: 86%; Time [27]: >14 days; survival at 750 mg/kg [28]: 70%
